In brackets after ≈: the same amount, converted by molar mass. Like-named read-outs stand apart in the source and are kept apart here.

The results in this text go back to patent publication US9617256B2 (priority 2007, dated 2017).

Assay [1] concerns AECO001 (ATCC25922). The assay is described as follows: MIC broth microdilution, AECO001. In kind it is cell-based, E. coli. To be noted: for MIC: Escherichia coli; for Ratio of MICs on AECO001 [Cpd (A = —CHCH3NH2)/Cpd (A = —C(CH3)2NH2)]: MIC of paired compound with A = —CHCH3NH2 divided by MIC of compound with A = —C(CH3)2NH2, n=2 data, pairs identical except for the A moiety. On the procedure:
(§1) Bacterial isolates were cultivated from −70° C. frozen stocks by overnight passages at 35° C. in ambient air on Mueller-Hinton agar (Beckton Dickinson, Franklin Lakes, N.J.). Clinical isolates tested were obtained from various geographically diverse hospitals in the US and abroad (Focus Diagnostics, Herndon, Va. and JMI, North Liberty, Iowa). Quality control strains were from the American Type Culture Collection (ATCC; Rockville, Md.). Additional primary panel strains were generated using standard molecular biology techniques.
(§2) Minimum Inhibitory Concentrations (MICs) were determined by the broth microdilution method in accordance with the Clinical and Laboratory Standards Institute (CLSI) guidelines. In brief, organism suspensions were adjusted to a 0.5 McFarland standard to yield a final inoculum between 3×10^5 and 7×10^5 colony-forming units (CFU)/mL. Drug dilutions and inocula were made in sterile, cation adjusted Mueller-Hinton Broth (Beckton Dickinson). An inoculum volume of 100 μL was added to wells containing 100 μL of broth with 2-fold serial dilutions of drug. All inoculated microdilution trays were incubated in ambient air at 35° C. for 18-24 hours. […] Performance of the assay was monitored by the use of laboratory quality-control strains and levofloxacin, a compound with a defined MIC spectrum, in accordance with CLSI guidelines.
(§3) *AECO001 is ATCC25922, AECO063 is ATCC25922 bearing an acrAB mutation, APAE001 is ATCC27853, APAE006 is a strain of P. aeruginosa in which all efflux pumps are inactivated, APAE006+PMBN indicates MICs with the indicated strain in the presence of 8 micrograms per milliliter of polymyxin B nonapeptide, AABA1060 is a clinical isolate of Acinetobacter baumannii, ASAU001 is a laboratory strain of S. aureus (ATCC29213).
On the technique in general: Broth dilution looks for growth in wells or tubes with falling amounts of substance.

Assay [2] relates to AECO063 (ATCC25922 bearing an acrAB mutation). The assay is described as follows: microbe, parasite or virus in culture. It counts as cell-based, E. coli. To be noted: Escherichia coli, ATCC25922, read-out: MIC AECO063. On the procedure: as §1, §2, §3
Assay [3] has as its system APAE001 (ATCC27853). The assay is described as follows: MIC broth microdilution, APAE001. In kind it is cell-based, P. aeruginosa. To be noted: Pseudomonas aeruginosa, ATCC27853, read-out: MIC APAE001, APAE001 (ATCC27853). Here is the method: as §1, §2, §3
Assay [4] relates to APAE006 (strain of P. aeruginosa in which all efflux pumps are inactivated). The assay is described as follows: microbe, parasite or virus in culture. It counts as cell-based. To be noted: Pseudomonas aeruginosa, read-out: MIC APAE006, APAE006, all efflux pumps inactivated. On the procedure: as §1, §2, §3
Assay [5] deals with APAE006 in the presence of 8 micrograms per milliliter of polymyxin B nonapeptide. In kind it is cell-based, P. aeruginosa. To be noted: APAE006 with 8 micrograms per milliliter polymyxin B nonapeptide. Here is the method:
as §1, §2, §3

For assay [6], the system named is AABA1060 (clinical isolate of Acinetobacter baumannii). The assay is described as follows: MIC broth microdilution, AABA1060. It counts as cell-based. To be noted: Acinetobacter baumannii, read-out: MIC AABA1060. Here is the method:
as §1, §2, §3

Assay [7] deals with ASAU001 (laboratory strain of S. aureus, ATCC29213). The assay is described as follows: MIC broth microdilution, ASAU001. In kind it is cell-based. To be noted: Staphylococcus aureus, ATCC29213, read-out: MIC ASAU001. On the procedure:
as §1, §2, §3

Where [8] appears, read: ATCC25922, read-out: MIC AECO001.
Setting [9] is: ATCC25922, read-out: MIC AECO001 HSA AGP.

Consider `CC(C)(N)[C@H](NC(=O)c1ccc(/C=C/C#Cc2ccccc2)cc1)C(=O)NO` [Example 114-16], for which the MIC in assay [1] (setting [8]) was under 2 µg/mL; in assay [1] (setting [9]) it was under 2 µg/mL; in assay [2], under 2 µg/mL; in assay [3], 2 to 16 µg/mL (≈ 5.3 to 42.4 µM); in assay [4] it was under 2 µg/mL; in assay [6] it was under 2 µg/mL. Also, in assay [7], the MIC was 16 to 64 µg/mL (≈ 42.4 to 170 µM). The “MIC APAE006 + PMBN” value in assay [5] is listed as “A (MIC's of 2.0 μg/mL or less = A)”.

Take `CC(C)(O)[C@H](NC(=O)c1ccc(C#C/C=C/C2CC2)cc1)C(=O)NO` [Example 107-1, 4-((E)-4-Cyclopropyl-but-3-en-1-ynyl)-N—((S)-2-hydroxy-1-hydroxycarbamoyl-2-methyl-propyl)-benzamide]: the MIC in assay [1] (setting [8]) is under 2 µg/mL; in assay [1] (setting [9]) it was 2 to 16 µg/mL (≈ 5.84 to 46.7 µM); in assay [2], under 2 µg/mL; in assay [3] it was under 2 µg/mL; in assay [4] it was under 2 µg/mL; in assay [6], 2 to 16 µg/mL (≈ 5.84 to 46.7 µM). The MIC in assay [7] lay in the range of 16 to 64 µg/mL (≈ 46.7 to 187 µM). Besides, the “MIC APAE006 + PMBN” value in assay [5] is listed as “A (MIC's of 2.0 μg/mL or less = A)”.

Consider `C[C@@H](O)[C@H](NC(=O)c1ccc(C#CC#CC2CC2)cc1)C(=O)NO` [Example 91-5], for which the MIC in assay [1] (setting [8]) was under 2 µg/mL; in assay [1] (setting [9]) it was under 2 µg/mL; in assay [2], under 2 µg/mL; in assay [3], under 2 µg/mL; in assay [4], under 2 µg/mL; in assay [6] it was 2 to 16 µg/mL (≈ 6.13 to 49 µM). For the same compound, the MIC in assay [7] was in the range of 16 to 64 µg/mL (≈ 49 to 196 µM). In assay [5], the “MIC APAE006 + PMBN” value is “A (MIC's of 2.0 μg/mL or less = A)”.

On to `C[C@@H](O)[C@H](NC(=O)c1ccc(/C=C/C#Cc2cccnc2)cc1)C(=O)NO` [Example 114-13], for which the MIC in assay [1] (setting [8]) was under 2 µg/mL; in assay [1] (setting [9]) it was 2 to 16 µg/mL (≈ 5.47 to 43.8 µM); in assay [2], under 2 µg/mL; in assay [3], 2 to 16 µg/mL (≈ 5.47 to 43.8 µM); in assay [4] it was under 2 µg/mL; in assay [6], 2 to 16 µg/mL (≈ 5.47 to 43.8 µM). Besides, in assay [7], the MIC was in the range of 16 to 64 µg/mL (≈ 43.8 to 175 µM). Besides, the “MIC APAE006 + PMBN” value in assay [5] was “A (MIC's of 2.0 μg/mL or less = A)”.

For the compound `CC(C)(N)[C@H](NC(=O)c1ccc(C#CC#Cc2ccc(N)cc2)cc1)C(=O)NO` [Example 82-25], the MIC in assay [1] (setting [8]), in assay [1] (setting [9]), in assay [2], in assay [3], in assay [4] and in assay [6] was under 2 µg/mL in each case. Also, the MIC in assay [7] is 16 to 64 µg/mL (≈ 41 to 164 µM). In addition, in assay [1], the “Ratio of MICs on AECO001 [Cpd (A = —CHCH3NH2)/Cpd (A = —C(CH3)2NH2)]” value is 1.6. In assay [5], the “MIC APAE006 + PMBN” value is “A (MIC's of 2.0 μg/mL or less = A)”.

Take `CC(C)(O)[C@H](NC(=O)c1ccc(C#CC#CC2CC2)cc1)C(=O)NO` [Example 91-6]: the MIC in assay [1] (setting [8]), in assay [1] (setting [9]), in assay [2], in assay [3], in assay [4] and in assay [6] was under 2 µg/mL in each case. Further, in assay [7], the MIC lay within 16 to 64 µg/mL (≈ 47 to 188 µM). Besides, in assay [5], the “MIC APAE006 + PMBN” value is recorded as “A (MIC's of 2.0 μg/mL or less = A)”.

Turning to `CC(C)(N)[C@H](NC(=O)c1ccc(C#C/C=C/c2ccc(CNC3CC3)cc2)cc1)C(=O)NO` [Example 102-6], the MIC in assay [1] (setting [8]) is under 2 µg/mL; in assay [1] (setting [9]), 2 to 16 µg/mL (≈ 4.48 to 35.8 µM); in assay [2], under 2 µg/mL; in assay [3], under 2 µg/mL; in assay [4], under 2 µg/mL; in assay [6], 2 to 16 µg/mL (≈ 4.48 to 35.8 µM). Also, in assay [7], the MIC is 16 to 64 µg/mL (≈ 35.8 to 143 µM). For the same compound, the “MIC APAE006 + PMBN” value in assay [5] was “A (MIC's of 2.0 μg/mL or less = A)”.

Turning to `CC(C)(N)[C@H](NC(=O)c1ccc(C#CC#Cc2cccnc2)cc1)C(=O)NO` [Example 88-8], the MIC was under 2 µg/mL in assay [1] (setting [8]); under 2 µg/mL in assay [1] (setting [9]); under 2 µg/mL in assay [2]; under 2 µg/mL in assay [3]; under 2 µg/mL in assay [4]; 2 to 16 µg/mL (≈ 5.31 to 42.5 µM) in assay [6]. In assay [7], the MIC lay within 16 to 64 µg/mL (≈ 42.5 to 170 µM). Moreover, the “Ratio of MICs on AECO001 [Cpd (A = —CHCH3NH2)/Cpd (A = —C(CH3)2NH2)]” value in assay [1] is recorded as 5.1. In assay [5], the “MIC APAE006 + PMBN” value was “A (MIC's of 2.0 μg/mL or less = A)”.
